Source: patent publication US20240368135A1 (VERTEX PHARMACEUTICALS INCORPORATED, priority 2021, published 2024)

Each compound was assayed against human NaV 1.8 (Homo sapiens, UniProt Q9Y5Y9) (assay: E-VIPR assay detecting and measuring NaV inhibition properties). Settings: HEK cells expressing truncated human NaV 1.8; in the presence of human serum (compound numbers followed by *); read-out: IC50 in the E-VIPR Assay, performed in the presence of human serum.
Type: cell-based
In short: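 Membrane potential was followed by coumarin/oxonol FRET during electrical field stimulation of matrigel-seeded HEK cells carrying truncated human NaV1.8 plus KIR2.1. Dosing used 11 points, 3-fold steps, top 300 nM final, 0.625% DMSO, with or without 25% human serum.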

Chain of human NaV 1.8 (Q9Y5Y9 126-399 limits assumed): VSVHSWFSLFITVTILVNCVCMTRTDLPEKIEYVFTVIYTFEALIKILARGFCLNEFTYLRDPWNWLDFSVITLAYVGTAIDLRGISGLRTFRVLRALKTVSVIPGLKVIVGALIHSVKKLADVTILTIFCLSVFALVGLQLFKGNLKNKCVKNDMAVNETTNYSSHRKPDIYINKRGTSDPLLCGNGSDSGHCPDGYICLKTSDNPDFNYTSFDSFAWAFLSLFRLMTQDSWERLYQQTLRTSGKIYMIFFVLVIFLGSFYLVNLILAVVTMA
Chain of human NaV 1.8 (Q9Y5Y9 660-890 limits assumed): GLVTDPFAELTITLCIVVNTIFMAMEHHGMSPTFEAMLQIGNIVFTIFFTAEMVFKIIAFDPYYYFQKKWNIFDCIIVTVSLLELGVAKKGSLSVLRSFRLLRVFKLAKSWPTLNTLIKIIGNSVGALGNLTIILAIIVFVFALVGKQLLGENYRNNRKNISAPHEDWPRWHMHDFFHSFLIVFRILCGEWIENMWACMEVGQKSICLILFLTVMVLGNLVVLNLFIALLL
Chain of human NaV 1.8 (Q9Y5Y9 1148-1722 limits assumed): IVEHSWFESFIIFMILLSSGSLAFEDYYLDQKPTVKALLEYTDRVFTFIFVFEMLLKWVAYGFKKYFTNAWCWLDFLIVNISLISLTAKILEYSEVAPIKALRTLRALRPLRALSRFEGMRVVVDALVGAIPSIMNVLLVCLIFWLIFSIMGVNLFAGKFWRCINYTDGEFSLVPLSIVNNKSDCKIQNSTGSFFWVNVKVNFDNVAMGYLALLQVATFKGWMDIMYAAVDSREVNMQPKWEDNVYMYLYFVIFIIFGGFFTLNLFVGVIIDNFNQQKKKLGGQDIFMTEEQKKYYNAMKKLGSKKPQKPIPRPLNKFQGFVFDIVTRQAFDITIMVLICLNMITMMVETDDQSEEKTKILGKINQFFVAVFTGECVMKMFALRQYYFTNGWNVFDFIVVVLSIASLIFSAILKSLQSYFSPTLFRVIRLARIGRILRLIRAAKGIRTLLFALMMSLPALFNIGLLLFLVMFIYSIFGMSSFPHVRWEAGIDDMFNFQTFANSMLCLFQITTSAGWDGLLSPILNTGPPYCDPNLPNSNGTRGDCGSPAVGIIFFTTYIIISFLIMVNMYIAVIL

Structure (SMILES)	IC50 [nM]
COc1c(C2C(C(=O)Nc3ccnc(C(O)C(C)O)c3)OC(C)(C(F)(F)F)C2C)ccc(F)c1C (single isomer, unassigned) [Compound 148]	< 10
COc1c(C2C(C(=O)Nc3ccnc(C(O)C(C)O)c3)OC(C)(C(F)(F)F)C2C)ccc(F)c1C (single isomer, unassigned) [Compound 149]	100 to 1000
COc1c([C@H]2[C@H](C(=O)Nc3cnnc(C(O)CO)c3)O[C@@](C)(C(F)(F)F)[C@H]2C)ccc(F)c1F (single isomer, unassigned) [Compound 206, rel-(2R*,3S*,4S*,5R*)-3-(3,4-difluoro-2-methoxyphenyl)-N-(6-(1,2-dihydroxyethyl)pyridazin-4-yl)-4,5-dimethyl-5-(trifluoromethyl)tetrahydrofuran-2-carboxamide]	10 to 100

Same assay, conditions: HEK cells expressing truncated human NaV 1.8; no human serum; read-out: IC50 in the E-VIPR Assay

Structure (SMILES)	IC50 [nM]
COc1c([C@H]2[C@H](C(=O)Nc3ccnc(N4CCN(C)CC4=O)c3)O[C@@](C)(C(F)(F)F)[C@H]2C)ccc(F)c1C(F)F (single isomer, unassigned) [Compound 162]	< 10
COc1c([C@@H]2[C@@H](C(=O)Nc3ccnc(N4CCN(C)CC4=O)c3)O[C@](C)(C(F)(F)F)[C@@H]2C)ccc(F)c1C(F)F (single isomer, unassigned) [Compound 163]	100 to 1000
COc1c([C@@H]2[C@@H](C(=O)Nc3ccc(C(F)F)nc3)O[C@](C)(C(F)(F)F)[C@@H]2C)ccc(F)c1C(F)F (single isomer, unassigned) [Compound 164]	≥ 1000
COc1c([C@H]2[C@H](C(=O)Nc3ccc(C(F)F)nc3)O[C@@](C)(C(F)(F)F)[C@H]2C)ccc(F)c1C(F)F (single isomer, unassigned) [Compound 165]	10 to 100
COc1ccc(NC(=O)[C@@H]2O[C@@](C)(C(F)(F)F)[C@@H](C)[C@H]2c2ccc(F)c(C(F)F)c2OC)cn1 (single isomer, unassigned) [Compound 167]	10 to 100
COc1c(C2C(C(=O)Nc3ccnc(C(=O)O)c3)OC(C)(C(F)(F)F)C2C)ccc(F)c1C(F)F (single isomer, unassigned) [Compound 174]	< 10
COc1c([C@@H]2[C@@H](C(=O)Nc3ccnc(C(=O)O)c3)O[C@](C)(C(F)(F)F)[C@@H]2C)ccc(F)c1C(F)F (single isomer, unassigned) [Compound 175]	100 to 1000
COc1c([C@H]2[C@H](C(=O)Nc3ccc(C(=O)O)nc3)O[C@@](C)(C(F)(F)F)[C@H]2C)ccc(F)c1C(F)F (single isomer, unassigned) [Compound 176]	< 10
COc1c([C@@H]2[C@@H](C(=O)Nc3ccc(C(=O)O)nc3)O[C@](C)(C(F)(F)F)[C@@H]2C)ccc(F)c1C(F)F (single isomer, unassigned) [Compound 177]	≥ 1000
COc1c([C@H]2[C@H](C(=O)Nc3ccnc(OC4CCN(C)C4=O)c3)O[C@@](C)(C(F)(F)F)[C@H]2C)ccc(F)c1F (single isomer, unassigned) [Compound 197, rel-(2R*,3S*,4S*,5R*)-3-(3,4-difluoro-2-methoxyphenyl)-4,5-dimethyl-N-(2-((1-methyl-2-oxopyrrolidin-3-yl)oxy)pyridin-4-yl)-5-(trifluoromethyl)tetrahydrofuran-2-carboxamide]	< 10
COc1c([C@H]2[C@H](C(=O)Nc3ccnc(OC4CCN(C)C4=O)c3)O[C@@](C)(C(F)(F)F)[C@H]2C)ccc(F)c1F (single isomer, unassigned) [Compound 198, rel-(2R*,3S*,4S*,5R*)-3-(3,4-difluoro-2-methoxyphenyl)-4,5-dimethyl-N-(2-((1-methyl-2-oxopyrrolidin-3-yl)oxy)pyridin-4-yl)-5-(trifluoromethyl)tetrahydrofuran-2-carboxamide]	10 to 100
COc1c([C@H]2[C@H](C(=O)Nc3cc(C(O)CO)ncc3F)O[C@@](C)(C(F)(F)F)[C@H]2C)ccc(F)c1F (single isomer, unassigned) [Compound 199, rel-(2R*,3S*,4S*,5R*)-3-(3,4-difluoro-2-methoxyphenyl)-N-(2-(-1,2-dihydroxyethyl)-5-fluoropyridin-4-yl)-4,5-dimethyl-5-(trifluoromethyl)tetrahydrofuran-2-carboxamide]	< 10
COc1c([C@H]2[C@H](C(=O)Nc3ccnc(C(C)(O)CO)c3)O[C@@](C)(C(F)(F)F)[C@H]2C)ccc(F)c1F (single isomer, unassigned) [Compound 202, rel-(2R*,3S*,4S*,5R*)-3-(3,4-difluoro-2-methoxyphenyl)-N-(2-(1,2-dihydroxypropan-2-yl)pyridin-4-yl)-4,5-dimethyl-5-(trifluoromethyl)tetrahydrofuran-2-carboxamide]	< 10
COc1c([C@H]2[C@H](C(=O)Nc3ccnc([C@H](O)[C@@H](C)O)c3)O[C@@](C)(C(F)(F)F)[C@H]2C)ccc(F)c1F (single isomer, unassigned) [Compound 203, rel-(2R*,3S*,4S*,5R*)-3-(3,4-difluoro-2-methoxyphenyl)-N-(2-((1S,2R)-1,2-dihydroxypropyl)pyridin-4-yl)-4,5-dimethyl-5-(trifluoromethyl)tetrahydrofuran-2-carboxamide]	< 10
COc1c([C@H]2[C@H](C(=O)Nc3ccnc([C@@H](O)[C@H](C)O)c3)O[C@@](C)(C(F)(F)F)[C@H]2C)ccc(F)c1F (single isomer, unassigned) [Compound 204, rel-(2R*,3S*,4S*,5R*)-3-(3,4-difluoro-2-methoxyphenyl)-N-(2-((1R,2S)-1,2-dihydroxypropyl)pyridin-4-yl)-4,5-dimethyl-5-(trifluoromethyl)tetrahydrofuran-2-carboxamide]	< 10
COc1c([C@H]2[C@H](C(=O)Nc3cc(C(O)CO)ncc3C)O[C@@](C)(C(F)(F)F)[C@H]2C)ccc(F)c1F (single isomer, unassigned) [Compound 205, rel-(2R*,3S*,4S*,5R*)-3-(3,4-difluoro-2-methoxyphenyl)-N-(2-(1,2-dihydroxyethyl)-5-methylpyridin-4-yl)-4,5-dimethyl-5-(trifluoromethyl)tetrahydrofuran-2-carboxamide]	< 10
COCC(N)c1cc(NC(=O)[C@@H]2O[C@@](C)(C(F)(F)F)[C@@H](C)[C@H]2c2ccc(F)c(F)c2OC)ncn1 (single isomer, unassigned) [Compound 217]	10 to 100
COc1c([C@H]2[C@H](C(=O)Nc3ccnc(C4(O)CCOC4)c3)O[C@@](C)(C(F)(F)F)[C@H]2C)ccc(F)c1F (single isomer, unassigned) [Compound 220, rel-(2R*,3S*,4S*,5R*)-3-(3,4-difluoro-2-methoxyphenyl)-N-(2-(3-hydroxy-tetrahydrofuran-3-yl)pyridin-4-yl)-4,5-dimethyl-5-(trifluoromethyl)tetrahydrofuran-2-carboxamide]	< 10
COCC(O)c1cc(NC(=O)[C@@H]2O[C@@](C)(C(F)(F)F)[C@@H](C)[C@H]2c2ccc(F)c(F)c2OC)ccn1 (single isomer, unassigned) [Compound 222, rel-(2R*,3S*,4S*,5R*)-3-(3,4-difluoro-2-methoxyphenyl)-N-(2-(1-hydroxy-2-methoxyethyl)pyridin-4-yl)-4,5-dimethyl-5-(trifluoromethyl)tetrahydrofuran-2-carboxamide]	< 10
COc1c([C@H]2[C@H](C(=O)Nc3ccc(C(C)(O)CF)nc3)O[C@@](C)(C(F)(F)F)[C@H]2C)ccc(F)c1F (single isomer, unassigned) [Compound 224, rel-(2R*,3S*,4S*,5R*)-3-(3,4-difluoro-2-methoxyphenyl)-N-(6-(1-fluoro-2-hydroxypropan-2-yl)pyridin-3-yl)-4,5-dimethyl-5-(trifluoromethyl)tetrahydrofuran-2-carboxamide]	100 to 1000
COc1c([C@H]2[C@H](C(=O)Nc3ccnc(C(C)(O)CF)c3)O[C@@](C)(C(F)(F)F)[C@H]2C)ccc(F)c1F (single isomer, unassigned) [Compound 226, rel-(2R*,3S*,4S*,5R*)-3-(3,4-difluoro-2-methoxyphenyl)-N-(2-(1-fluoro-2-hydroxypropan-2-yl)pyridin-4-yl)-4,5-dimethyl-5-(trifluoromethyl)tetrahydrofuran-2-carboxamide]	< 10
COc1c([C@H]2[C@H](C(=O)Nc3cc(C(C)(O)CF)ncn3)O[C@@](C)(C(F)(F)F)[C@H]2C)ccc(F)c1F (single isomer, unassigned) [Compound 228, rel-(2R*,3S*,4S*,5R*)-3-(3,4-difluoro-2-methoxyphenyl)-N-(6-(1-fluoro-2-hydroxypropan-2-yl)pyrimidin-4-yl)-4,5-dimethyl-5-(trifluoromethyl)tetrahydrofuran-2-carboxamide]	10 to 100
COc1c([C@H]2[C@H](C(=O)Nc3ccnc(C(CO)N(C)C)c3)O[C@@](C)(C(F)(F)F)[C@H]2C)ccc(F)c1F (single isomer, unassigned) [Compound 230, rel-(2R*,3S*,4S*,5R*)-3-(3,4-difluoro-2-methoxyphenyl)-N-(2-(-1-(dimethylamino)-2-hydroxyethyl)pyridin-4-yl)-4,5-dimethyl-5-(trifluoromethyl)tetrahydrofuran-2-carboxamide]	< 10
CNC(CO)c1cc(NC(=O)[C@@H]2O[C@@](C)(C(F)(F)F)[C@@H](C)[C@H]2c2ccc(F)c(F)c2OC)ccn1 (single isomer, unassigned) [Compound 232]	< 10
COc1c([C@H]2[C@H](C(=O)Nc3ccnc(O[C@@H]4COC[C@@H]4O)c3)O[C@@](C)(C(F)(F)F)[C@H]2C)ccc(F)c1F (single isomer, unassigned) [Compound 239, rel-(2R*,3S*,4S*,5R*)-3-(3,4-difluoro-2-methoxyphenyl)-N-(2-(((3R,4S)-4-hydroxytetrahydrofuran-3-yl)oxy)pyridin-4-yl)-4,5-dimethyl-5-(trifluoromethyl)tetrahydrofuran-2-carboxamide]	< 10
